How the values were obtained:
Assay type in all cases: biochemical
ENPP1 [1] = molecular target: T1, ENPP1 (Homo sapiens, UniProt P22413); experiment: ENPP1 enzyme assay with AMP-pNP substrate (hydrolysis of ATP analog); conditions: AMP-pNP substrate (ATP analog); Ki from IC50 by Cheng-Prusoff; read-out: ENPP1 Inhibition _AMP-pNP: Ki
T1 sequence (P22413 1-925): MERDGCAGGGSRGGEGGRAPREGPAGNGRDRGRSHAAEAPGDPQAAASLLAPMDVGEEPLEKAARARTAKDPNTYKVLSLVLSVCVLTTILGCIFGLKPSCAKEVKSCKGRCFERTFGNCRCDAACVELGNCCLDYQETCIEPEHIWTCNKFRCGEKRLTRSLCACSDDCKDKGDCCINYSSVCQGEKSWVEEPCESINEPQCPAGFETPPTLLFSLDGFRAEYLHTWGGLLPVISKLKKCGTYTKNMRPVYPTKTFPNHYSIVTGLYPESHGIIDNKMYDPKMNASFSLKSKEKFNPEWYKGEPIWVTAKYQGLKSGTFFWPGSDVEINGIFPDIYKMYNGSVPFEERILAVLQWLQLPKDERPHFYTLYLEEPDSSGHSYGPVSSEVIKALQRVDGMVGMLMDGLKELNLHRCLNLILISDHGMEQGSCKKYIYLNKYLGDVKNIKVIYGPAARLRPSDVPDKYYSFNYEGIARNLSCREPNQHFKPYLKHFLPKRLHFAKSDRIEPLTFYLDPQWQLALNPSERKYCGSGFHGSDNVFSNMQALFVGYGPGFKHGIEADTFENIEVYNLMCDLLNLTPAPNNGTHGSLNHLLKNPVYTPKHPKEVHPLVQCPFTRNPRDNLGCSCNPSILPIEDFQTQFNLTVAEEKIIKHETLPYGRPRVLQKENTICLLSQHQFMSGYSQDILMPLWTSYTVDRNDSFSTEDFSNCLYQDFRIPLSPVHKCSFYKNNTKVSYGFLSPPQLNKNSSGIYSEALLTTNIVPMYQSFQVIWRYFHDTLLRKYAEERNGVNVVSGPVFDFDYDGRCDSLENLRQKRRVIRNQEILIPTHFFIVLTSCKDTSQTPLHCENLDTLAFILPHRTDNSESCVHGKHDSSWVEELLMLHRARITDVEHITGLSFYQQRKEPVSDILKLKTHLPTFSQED
Summary of the method: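 Reactions ran 20 min at 37 °C, pH 8.5 Tris buffer with NaCl, CaCl2, ZnCl2, using 300 µM AMP-pNP and 60 ng/well recombinant human ENPP1; inhibitor range 10 µM–30 pM, duplicates.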

ENPP1 [2] = molecular target: T1, ENPP1; experiment: Indirect quantitation of 2',3'-cGAMP hydrolysis (AMP-Glo Assay kit); conditions: cGAMP substrate; Ki from IC50 by Cheng-Prusoff; read-out: ENPP1 Inhibition -cGAMP: Ki
ENPP1 [3] = molecular target: T1, ENPP1; experiment: Substrate selectivity ratio, inhibition of cGAMP hydrolysis versus ATP hydrolysis; conditions: ratio Ki AMP-pNP / Ki cGAMP
Procedure: The selectivity ratios for inhibition of cGAMP hydrolysis versus ATP hydrolysis were then calculated as follows: […]

Row | SMILES | Ki (ENPP1 [1]) [nM] | Ki (ENPP1 [2]) [nM] | Substrate Selectivity: Ki_AMP-pNP/Ki_cGAMP (ENPP1 [3])
1 | COc1cc2ncnc(NCc3ccc(S(N)(=O)=O)cc3)c2cc1F [Example 259, 4-(((6-fluoro-7-methoxyquinazolin-4-yl)amino)methyl)benzenesulfonamide] | < 100 | < 100 | 41.6
2 | COc1cc2nccc(Oc3ccc(S(N)(=O)=O)cc3)c2cc1OC [Example 303, 4-((6,7-dimethoxyquinolin-4-yl)oxy)benzenesulfonamide] | 100 to 1000 | < 100 | 41.6
3 | COc1ccc2c(Oc3ccc(S(N)(=O)=O)cc3)c(C(F)(F)F)cnc2c1 [Example 377, 4-((7-methoxy-3-(trifluoromethyl)quinolin-4-yl)oxy) benzenesulfonamide] | > 1000 | 100 to 1000 | >89
4 | NS(=O)(=O)NCCC1CCN(c2ncnc3c2CCNC3)CC1 [Example 232, N-(2-(1-(5,6,7,8-tetrahydropyrido[3,4-d]pyrimidin-4-yl)piperidin-4-yl)ethyl)sulfamide] | > 1000 | 100 to 1000 | > 7.1
5 | N#Cc1cnc2ccccc2c1N1CCC2(CC1)CCN(S(N)(=O)=O)C2 [Example 167, 8-(3-cyanoquinolin-4-yl) -2,8-diazaspiro [4.5] decane-2-sulfonamide] | 100 to 1000 | < 100 | 10.6
6 | COc1cc2ncc(C3CC3)c(-c3ccc4c(c3)CN(S(N)(=O)=O)CC4)c2cc1OC [Example 283, 7-(3-cyclopropyl-6,7-dimethoxyquinolin-4-yl)-3,4-dihydroisoquinoline-2(1H)-sulfonamide] | < 100 | < 100 | 5.4
7 | COc1ccc2c(NCc3ccc(S(N)(=O)=O)cc3)ccnc2c1 [Example 293, 4-(((7-methoxyquinolin-4-yl)amino)methyl)benzenesulfonamide] | < 100 | < 100 | 17.9
8 | COc1cc2nccc(N3CC4CN(S(N)(=O)=O)CC4C3)c2cc1OC (stereo not drawn) [Example 202, 5-(6,7-dimethoxyquinolin-4-yl)hexahydropyrrolo[3,4-c]pyrrole-2(1H)-sulfonamide] | 100 to 1000 | < 100 | 10.5
9 | COc1ccc2c(N3CCc4cc(N(C)S(N)(=O)=O)ccc43)ccnc2c1 [Example 418, N-(1-(7-methoxyquinolin-4-yl)indolin-5-yl)-N-methylsulfamide] | 100 to 1000 | < 100 | >40
10 | COc1cc2ncnc(-c3ccc4c(c3)CCN(S(N)(=O)=O)C4)c2cc1OC [Example 121, 6-(6,7-dimethoxyquinazolin-4-yl)-3,4-dihydroisoquinoline-2(1H)-sulfonamide] | > 1000 | < 100 | >61.5
11 | COc1ccc2c(Oc3ccc(NS(N)(=O)=O)cc3C(F)(F)F)ccnc2c1 [Example 317, N-(4-((7-methoxyquinolin-4-yl)oxy)-3-(trifluoromethyl)phenyl)sulfamide] | > 1000 | 100 to 1000 | >49.9
12 | COc1ccc2c(-c3ccc(CN(C)S(N)(=O)=O)cc3)ccnc2c1 [Example 368, N-(4-(7-methoxyquinolin-4-yl)benzyl)-N-methyl sulfamide] | 100 to 1000 | < 100 | >7
13 | Cn1cnc2nccc(-c3ccc4c(c3)CN(S(N)(=O)=O)CC4)c21 [Example 193, 7-(1-methyl-1H-imidazo[4,5-b]pyridin-7-yl)-3,4-dihydroisoquinoline-2(1H)-sulfonamide] | > 1000 | < 100 | > 38.6
14 | COc1cc2ncc(-c3ccc4c(c3)CN(S(N)(=O)=O)CC4)c(Cl)c2cc1OC [Example 260, 7-(4-chloro-6,7-dimethoxyquinolin-3-yl)-3,4-dihydroisoquinoline-2(1H)-sulfonamide] | < 100 | < 100 | 21.5
15 | COc1ccc2c(-c3ccc(CN)cc3)c(C#N)cnc2c1 [Example 277, 4-(4-(aminomethyl)phenyl)-7-methoxyquinoline-3-carbonitrile] | > 1000 | 100 to 1000 | >90.4
16 | COc1cc2ncc(-c3ccc(CNS(N)(=O)=O)cc3)n2cc1OC [Example 266, N-(4-(6,7-dimethoxyimidazo[1,2-a]pyridin-3-yl)benzyl)sulfamide] | 100 to 1000 | < 100 | >5.9
17 | COc1cc2ncnc(Oc3ccc(NS(N)(=O)=O)cc3)c2cc1OC [Example 273, N-(4-((6,7-dimethoxyquinazolin-4-yl)oxy)phenyl)sulfamide] | > 1000 | 100 to 1000 | >12.4
18 | COc1ccc2c(N3CCc4cc(NS(N)(=O)=O)ccc43)ncnc2c1 [Example 392, N-(1-(7-methoxyquinazolin-4-yl)indolin-5-yl)sulfamide] | > 1000 | < 100 | >133
19 | COc1cc2ncc(C#N)c(N3CCC4(CC3)CCN(S(N)(=O)=O)C4)c2cc1OC [Example 64, 8-(3-cyano-6,7-dimethoxyquinolin-4-yl)-2,8-diazaspiro [4.5] decane-2-sulfonamide] | < 100 | < 100 | 11.9
20 | NS(=O)(=O)c1ccc(Oc2ccnc3[nH]c(=O)ccc23)cc1 [Example 352, 4-((7-oxo-7,8-dihydro-1,8-naphthyridin-4-yl)oxy)benzenesulfonamide] | 100 to 1000 | < 100 | 43
21 | COc1ccc2c(Nc3ccc(NS(N)(=O)=O)cc3)ccnc2n1 [Example 231, N-(4-((7-methoxy-1,8-naphthyridin-4-yl)amino)phenyl)sulfamide] | < 100 | < 100 | 30.9
22 | COc1ccc2nccc(Oc3ccc(S(N)(=O)=O)cc3)c2c1 [Example 355, 4-((6-methoxyquinolin-4-yl)oxy)benzenesulfonamide] | > 1000 | < 100 | >53
23 | COc1cc2ncc(C#N)c(-c3ccc(S(N)(=O)=O)cc3)c2cc1OC [Example 136, 4-(3-cyano-6,7-dimethoxyquinolin-4-yl)benzenesulfonamide] | > 1000 | < 100 | >461
24 | COc1cc2nccc(N3CCc4cc(NS(N)(=O)=O)ccc43)c2cc1F [Example 72, N-(1-(6-fluoro-7-methoxyquinolin-4-yl)indolin-5-yl)sulfamide] | < 100 | < 100 | 11.9
25 | COc1ccc2ncnc(N3CCC(CCNS(N)(=O)=O)CC3)c2c1 [Example 199, N-(2-(1-(6-methoxyquinazolin-4-yl)piperidin-4-yl)ethyl)sulfamide] | 100 to 1000 | < 100 | 33.6
26 | COc1cc2ncnc(N3CCC(CCNS(N)(=O)=O)CC3)c2cc1OC(C)C [Example 205, N-(2-(1-(6-isopropoxy-7-methoxyquinazolin-4-yl)piperidin-4-yl)ethyl)sulfamide] | > 1000 | 100 to 1000 | > 14.4
27 | COc1cc2ncnc(NC3CCC(NS(N)(=O)=O)CC3)c2cc1OC (stereo not drawn) [Example 272, N-(4-((6,7-dimethoxyquinazolin-4-yl)amino)cyclohexyl)sulfamide] | > 1000 | < 100 | >35.2
28 | COc1cc2c(-c3ccc(CNS(N)(=O)=O)cc3)c(C#N)cnc2cn1 [Example 235, N-(4-(3-cyano-6-methoxy-1,7-naphthyridin-4-yl)benzyl)sulfamide] | > 1000 | 100 to 1000 | >97.7
29 | COc1cc2ncnc(-c3ccc(CN(C4CC4)S(N)(=O)=O)cc3)c2cc1OC [Example 285, N-cyclopropyl-N-(4-(6,7-dimethoxyquinazolin-4-yl)benzyl)sulfamide] | 100 to 1000 | < 100 | >28.3

Reference: patent publication US20230183239A1, “ECTONUCLEOTIDE PYROPHOSPHATASE-PHOSPHODIESTERASE 1 (ENPP-1) INHIBITORS AND USES THEREOF” (AbbVie Inc., priority 2017, published 2023)
